One data set deals with C-reactive protein. Nature of the data set: C-reactive protein tests in COVID-19 patients treated with PLD. In kind it is in vivo, human. As for the experimental part: The effect of PLD on inflammatory cytokines was also measured for patients 5, 7 and 9 and the results of C-reactive protein tests are shown in FIG. 36.
In another data set the test system is HCoV-229E. It is filed as cell-based.
Another data set deals with SARS-CoV-2 (COVID-19). In words: Study APLICOV-PC (NCT04382066): efficacy in patients hospitalised for COVID-19. It is filed as in vivo, human.
A further data set in a line: in vitro. To be noted: human.
The subject of data set [1] is HIV-1 (recombinant virus NL4.3 Luc). In words: microbe, parasite or virus in culture. To be noted: for IC50: Human immunodeficiency virus 1, PBMC. It is filed as cell-based.
For data set [2] the test system is unchanged. Nature of the data set: microbe, parasite or virus in culture. It is filed as cell-based.
[3] abbreviates: Huh-7, 50 nM, 5 nM and 0.5 nM, 24 hpi.
Where [4] appears, read: interim results, 8 evaluable patients.

Structures are written as SMILES. Entries after “also recorded” stand apart in the source; their conditions may differ. Read-outs that look alike come from different tables or passages of the source. Numbered stars: 1 amine (or outer) side, 2 acyl side, 3 side chain; on linkers, the order of the positions; unused ones are H or OH. Bridge positions count the residues as written; N and C are the ends. Square brackets hold non-standard residues; d marks the D form. Peptide text beside a SMILES is read from it. * marks the point of attachment. Benzothiophen(2-yl)carbonyl = O=C(c1cc2ccccc2s1)*; X2 = CC[C@H](C)[C@@H](N[*:1])[C@@H](O)CC(=O)[*:2]; NMeY = CN[C@@H](Cc1ccc(O)cc1)C(=O)O; dNMeL = CN[C@H](CC(C)C)C(=O)O; Tos = Cc1ccc(S(=O)(=O)*)cc1; Hiv = CC(C)[C@H](O)C(=O)O; Aib = CC(C)(N)C(=O)O

For the compound `CC[C@H](C)[C@H]1NC(=O)[C@@H](NC(=O)C(CC(C)C)N(C)C(=O)[C@@H]2CCCN2C(=O)C(C)=O)[C@@H](C)OC(=O)[C@H](Cc2ccc(OC)cc2)N(C)C(=O)[C@@H]2CCCN2C(=O)[C@H](CC(C)C)NC(=O)[C@@H](C)C(=O)[C@H](C(C)C)OC(=O)C[C@@H]1O` (stereo in doubt) [PLD, (−)-(3S,6R,7S,10R,11S,15S,17S,20S,25aS)-11-hydroxy-3-(4-methoxybenzyl)-2,6,17-trimethyl-15-(1-methylethyl)-7-[[(2R)-4-methyl-2-[methyl[[(2S)-1-(2-oxopropanoyl)pyrrolidin-2-yl]carbonyl]amino]pentanoyl]amino]-10-[(1S)-1-methylpropyl]-20-(2-methylpropyl)tetradecahydro-15H-pyrrolo[2,1-f]-[1,15,4,7,10,20]dioxatetrazacyclotricosine-1,4,8,13,16,18,21(17H)-heptone], the “Acute fall of C-reactive protein seen by day” value in the data set on C-reactive protein (patient 5 (PLD 1.5 mg×3)) was no more than 2 days. Besides, the “Acute fall of C-reactive protein seen by day” value with C-reactive protein (patients 7 and 9 (PLD 2.0 mg×3)) is no more than 3 days. Further, the “Cell growth / viability (fluorescence images)” value (“Cell growth / viability” for short) in the data set with Huh-7 cells (setting [3]) is listed as “cells remain viable at all concentrations”. Further, in the data set with HCoV-229E, the “Antiviral activity (fluorescence images)” value was “remarkable antiviral properties are seen across all concentrations”. Besides, the “Clinical course (single patient)” value in the data set with SARS-CoV-2 (COVID-19) (PLD 1.5 mg×3, interim results) is listed as “Acute clinical improvement; also recorded: lack of improvement; also recorded: prevented clinical deterioration; also recorded: Major clinical improvement”. Moreover, in the data set with SARS-CoV-2 (COVID-19) (PLD 2.0 mg×3, interim results), the “Clinical course (single patient)” value is “major clinical improvement” and the “PCR COVID 19 test at day 7 (single patient)” value is “still positive”. Further, the “Removal of viral burden” value in the data set on SARS-CoV-2 (COVID-19) (ad hoc analysis of the first cohort at 1.5 mg and 2 mg) is recorded as “complete removal of viral burden was noted in the vast majority of patients”. For the same compound, in the data set with SARS-CoV-2 (COVID-19) (setting [4]), the “Evaluable patients requiring post PLD specific anti COVID 19 therapy” value is given as 2 out of 8; the “Evaluable patients with SARS-CoV-2 PCR conversion to negative” value is reported as 6 out of 8; the “Evaluable patients with disease control and major clinical improvements” value is 6 out of 8. In the data set with SARS-CoV-2 (COVID-19) (interim results, 9 patients), the Deaths on study entry is “no deaths on study” and the “Need for mechanical ventilation or ICU admission” value is given as “none of the patients required mechanical ventilation or ICU admission”.

As a reminder, the IC50 is the concentration at which inhibition is half-maximal. In “in vitro”, `CC[C@H](C)[C@H]1NC(=O)[C@@H](NC(=O)[C@@H](CC(C)C)NC)[C@@H](C)OC(=O)[C@H](Cc2ccc(OC)cc2)N(C)C(=O)[C@@H]2CCCN2C(=O)[C@H](CC(C)C)NC(=O)C(C)(C)NC(=O)C[C@@H]1O` [Compound 3] (H-[dNMeL]T[X2][Aib]LP[NMeY](Me); ester 2-C) gave a CC50 of roughly 27 µM. The IC50 in data set [1] (read-out: IC50 (antiviral activity), preactivated PBMCs infected with NL4.3 Luc, 48 hours) came out at 160 nM; in data set [2] (Human immunodeficiency virus 1, MT2, read-out: IC50 (antiviral activity), MT-2 cells infected with NL4.3 Luc, 48 hours) it was 1390 nM. Also, the “Toxic concentrations not reached at” value in the data set with MT-2 cells was greater than 57.3 µM.

In the case of `CC[C@H](C)[C@H]1NC(=O)[C@@H](NC(=O)[C@H](CC(C)C)N(C)C(=O)[C@@H]2CCCN2C(=O)C(C)=O)[C@@H](C)OC(=O)[C@H](Cc2ccc(OC)cc2)N(C)C(=O)[C@@H]2CCCN2C(=O)[C@H](CC(C)C)NC(=O)[C@@H](C)C(=O)[C@H](C(C)C)OC(=O)C[C@@H]1O` [Compound 8], the Antiviral activity result in data set [1] (PBMCs) and in data set [2] (MT-2 cells) was “showed also antiviral activity” throughout. In addition, in data set [2] (MT-2 cells and PBMCs, not told apart), the “IC50 value, fold lower than the specific concentration of 10 μM” value is 100 fold. For the same compound, the “Specificity of antiviral activity” value in data set [2] (at 10 μM, MT-2 cells and PBMCs, not told apart) is recorded as “specific”; in data set [2] (at 50 μM, MT-2 cells and PBMCs, not told apart) it was “non-specific”.

`CC[C@H](C)[C@H]1NC(=O)[C@@H](NC(=O)[C@@H](CC(C)C)N(C)C(=O)[C@@H]2CCCN2C(=O)[C@H](C)NC(=O)[C@@H](Cc2ccccc2)NC(=O)OC(C)(C)C)[C@@H](C)OC(=O)[C@H](Cc2ccc(OC)cc2)N(C)C(=O)[C@@H]2CCCN2C(=O)[C@H](CC(C)C)NC(=O)[C@@H](C)C(=O)[C@H](C(C)C)OC(=O)C[C@@H]1O` [Compound 9]: the “Cell growth / viability” value with Huh-7 cells is listed as “cells remain viable at all concentrations”. Further, the IC50 in data set [1] (PBMCs, read-out: IC50) stood at 0.63 nM. The “Antiviral activity (fluorescence images)” value in the data set with HCoV-229E is “remarkable antiviral properties are seen across all concentrations”.

`CC[C@H](C)[C@H]1NC(=O)[C@@H](NC(=O)[C@@H](CC(C)C)N(C)C(=O)c2cc3ccccc3s2)[C@@H](C)OC(=O)[C@H](Cc2ccc(OC)cc2)N(C)C(=O)[C@@H]2CCCN2C(=O)[C@H](CC(C)C)NC(=O)[C@H](C(C)C)OC(=O)C[C@@H]1O` [Compound 10] ({Benzothiophen(2-yl)carbonyl}-[dNMeL]T[X2][Hiv]LP[NMeY](Me); ester 2-C): the “Cell growth / viability” value in the data set with Huh-7 cells (setting [3]) was “cells remain viable at all concentrations”. For the same compound, in data set [1], the IC50 amounted to 0.86 nM. Moreover, in the data set with HCoV-229E, the “Antiviral activity (fluorescence images)” value is “remarkable antiviral properties are seen across all concentrations”.

For `CC[C@H](C)[C@H]1NC(=O)[C@@H](NC(=O)[C@@H](CC(C)C)N(C)S(=O)(=O)c2ccc(C)cc2)[C@@H](C)OC(=O)[C@H](Cc2ccc(OC)cc2)N(C)C(=O)[C@@H]2CCCN2C(=O)[C@H](CC(C)C)NC(=O)[C@H](C(C)C)OC(=O)C[C@@H]1O` [Compound 11] (Tos-[dNMeL]T[X2][Hiv]LP[NMeY](Me); ester 2-C), the IC50 in data set [1] was found to be 69.4 nM.
